# Test results published in patent US20240400579A1, “SPIROCYCLIC MODULATORS OF CHOLESTEROL BIOSYNTHESIS AND THEIR USE FOR PROMOTING REMYELINATION” (GENENTECH, INC., priority 2021, published 2024).
# Legend:
# [1] = molecular target: human emopamil binding protein and human 7-dehydrocholesterol reductase co-expressing cell membrane (Homo sapiens (Human), UniProt Q15125); assay: hEBP-DHCR7 radioligand filtration binding assay with [3H]-Compound 118A*; details: radioligand [3H]-Compound 118A*; HEK293 membrane co-expressing hEBP and DHCR7
# Chain of human emopamil binding protein and human 7-dehydrocholesterol reductase co-expressing cell membrane (Q15125 whole entry): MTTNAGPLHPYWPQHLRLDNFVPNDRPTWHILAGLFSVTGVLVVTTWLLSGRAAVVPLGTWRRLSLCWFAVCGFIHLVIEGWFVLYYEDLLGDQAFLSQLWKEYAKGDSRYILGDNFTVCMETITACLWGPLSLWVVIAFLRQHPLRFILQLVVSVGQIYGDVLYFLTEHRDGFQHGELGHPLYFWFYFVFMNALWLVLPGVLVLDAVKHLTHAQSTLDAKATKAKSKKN
# Description: Membrane Preparation: human emopamil binding protein and human 7-dehydrocholesterol reductase co-expressing cells were generated by transient transfecting host human embryonic kidney (HEK) 293 cells with 2 DNA constructs containing each protein's coding sequence. Cells were suspension cultured at 37° C. with 5% CO2 in […] 293 Expression Medium (Thermofisher). Whole cell membrane was prepared by harvesting the cell pellet, adding cold membrane buffer (50 mM Tris, pH7.5, 1× Roche COMPLETE EDTA-free protease inhibitor cocktail) 10 times volume of the cell pellets weight, lysing cell pellet on ice by using Dounce homogenizer, spinning at 200 g 4° C. for 15 min, collecting supernatant and spinning again at 25000 g 4° C. for 50 min, transferring pellet to Dounce homogenizer, re-suspending pellet by homogenizing in membrane buffer on ice to reach ˜25 mg/mL, then keeping whole cell membrane aliquots at −80° C.
# Compounds were prepared in a 96-well U bottom plate using an Echo550 machine and 10 mM compound DMSO stock solution, followed by an 8-dose 5-fold serial dilutions protocol with final testing compound concentration ranging from 0.06 to 5000 nM, with DMSO back fill to 100 nL/well and n=2. […] The UniFilter-96 GF/B plates were pre-treated by adding 50 μl/well of 0.3% (v/v) PEI to UniFilter-96 GF/B plates. The plates were sealed and incubated at 4° C. for 3 hrs. Then, the plates were washed with ice-cold assay buffer 3 times. The radioligand binding assay was prepared by adding assay buffer diluted hEBP-DHCR7 membrane at 66.7 μg/ml x 150 μl/well into the 96-well compound plate to reach 10 μg membrane per well. Then, the assay buffer diluted [3H]-Compound 118A* was added at 25 nM×50 μl/well. Following this, the plate was centrifuged at 1000 rpm for 30 secs. The plate was then sealed and agitated at 600 rpm at 22° C. for 5 min, and then incubated at 22° C. for 3 hrs. The incubation was stopped by transferring the binding solution to the pre-treated UniFilter-96 GF/B plate, vacuum filtrated, and then washed four times with ice-cold assay buffer. Following this, the plates were dried at 37° C. for 45 min. The plates were then sealed at the bottom. 40 μl/well of scintillation cocktail was added to the plates. A MicroBeta2 microplate counter was then used to read the plate and analyze the data. For reference and test compounds, the results are expressed as % Inhibition, using the normalization equation: N=100-100×(U−C2)/(C1−C2), where U is the unknown value, C1 is the average of high controls, and C2 is the average value of low controls. The IC50 was determined by fitting percentage of inhibition as a function of compound concentrations with Hill equation using XLfit. Results are expressed as hEBP-DHCR7 Ki (uM) in Table 4. Ki was calculated as described above.
# EpiSC-derived OPCs = assay: In vitro phenotypic screening of OPCs, MBP high-content imaging; assay type: cell-based, mouse; details: Mus musculus, 72 h, percentage of MBP+ oligodendrocytes; 3 days; 0.5 nM to 1000 nM; read-out: mOPC EC50
# Description: (§1) To assess effects of treatments on OPCs, all treatments were assayed in two or more independent platings of epiblast stem cell-derived OPCs (EpiSC). EpiSC-derived OPCs were obtained using in vitro differentiation protocols and culture conditions described previously (Najm et al, 2011, Nature Methods). OPCs were expanded and frozen down in aliquots. OPCs were thawed into growth conditions for at least one passage before use in further assays.
# EpiSC-derived OPCs were grown and expanded in poly-L-ornithine (PO) and laminin-coated flasks in N2B27 media (DMEM/F12 (Gibco), N2-MAX (R&D Systems), B-27 (ThermoFisher), and GlutaMax (Gibco)) supplemented with FGF2 ([…], R&D systems, 233-FB-025) and PDGF-AA ([…], R&D systems, 233-AA-050) before harvesting for experiments. The cells were seeded onto poly-L-ornithine or poly-D-lysine coated CellCarrier Ultra plates (PerkinElmer) coated with laminin (Sigma, L2020) at a density of 150,000/cm^2 in N2B27 media without growth factors. For dose-response testing, a 1000× compound stock in dimethyl sulphoxide (DMSO) was added to assay plates, resulting in 8-point dose curves with final concentrations between 1000 nM and 0.5 nM. Positive controls and DMSO vehicle controls were included in each assay plate. Cells were incubated under standard conditions (37° C., 5% CO2) for 3 days and fixed with 4% paraformaldehyde (PFA) in phosphate buffered saline (PBS) for 20 min. Fixed plates were washed with PBS, permeabilized with 0.1% Triton X-100, and blocked with 10% donkey serum (v/v) in PBS for 40 min. Then, cells were labelled with MBP antibodies (Abcam, ab7349; 1:200) for 2 h at room temperature, washed with PBS, and stained with Alexa Fluor conjugated secondary antibodies (1:500) for 45 min. Nuclei were visualized by DAPI staining (Sigma; 1 μg/ml), followed by further PBS washes.
# Cells and cell culture plates were imaged on the Operetta High Content Imaging and Analysis system (PerkinElmer). Analysis (PerkinElmer Harmony and Columbus software) began by identifying intact nuclei stained by DAPI. The peri-nuclear region of each cell was then cross-referenced with the mature myelin protein (MBP) stain to identify oligodendrocyte nuclei, and from this the percentage of oligodendrocytes was calculated. EC50 values were calculated using The Levenberg-Marquardt algorithm to fit a Hill equation to dose-response data (0.5 nM to 1000 nM).
# [2] = test system: zymostenol accumulation in EpiSC-derived OPCs (EBP); assay: GC/MS-based sterol profiling, zymostenol accumulation; assay type: cell-based, mouse; details: Mus musculus, 24 h, 8 doses from 0.15 nM to 333 nM, read-out: mZymo GCMS EC50
# Description: as §1
# Sterols were monitored using a modified Folch wash protocol (Hubler et al, 2018, Nature). EpiSC-derived OPCs were plated at 100,000 cells per well in PO— and laminin-coated 96-well plates in N2B27 media without growth factors. After 24 hours, cells were rinsed with saline and plates were frozen. Cholesterol-d7 standard was then added to each well before drying under nitrogen stream and derivatization with 55 μl of bis(trimethylsilyl) trifluoroacetamide. After derivatization, 2 μl were analyzed by gas chromatography/mass spectrometry using an Agilent 5973 Network Mass Selective Detector equipped with a 6890 gas chromatograph system and a HP-5MS capillary column (30 m x 0.25 mm×[…]). Samples were analyzed in full scan mode using electron impact ionization; ion fragment peaks were integrated to calculate sterol abundance, and quantitation was relative to cholesterol-d7. The following ion fragments were used to quantitate each metabolite: cholesterol-d7 (465), FF-Mas (482), cholesterol (368), zymostenol (458), zymosterol (456), Desmosterol (456, 343), 7-dehydrocholesterol (456, 325), lanosterol (393), lathosterol (458), 14-dehydrozymostenol (456, 351). […] All standards were obtained from Avanti Polar Lipids unless otherwise indicated. Calibration curves were generated by injecting varying concentrations of sterol standards and maintaining a fixed amount of cholesterol-D7. For normalized zymostenol accumulation results, the total amount of zymostenol measured after drug treatment was divided by the total amount of zymostenol accumulated after 24 hr treatment with 100 nM positive control reference.
SMILES,Ki [1] [nM],EC50 (EpiSC-derived OPCs) [nM],EC50 [2] [nM]
"O=S1(=O)CC2(CCN(CCOc3ccc(-c4ccc(C(F)(F)F)nc4)cc3)CC2)C1 [Compound 238, 7-(2-(4-(6-(Trifluoromethyl)pyridin-3-yl)phenoxy)ethyl)-2-thia-7-azaspiro[3.5]nonane 2,2-dioxide]",14.1,13.7,2.89
"Cc1nc(C(F)(F)F)ccc1OCCN1CCC2(CC1)CS(=O)(=O)C2 [Compound 243, 7-[2-[[2-Methyl-6-(trifluoromethyl)-3-pyridyl]oxy]ethyl]-26-thia-7-azaspiro[3.5]nonane 2,2-dioxide]",53,,6.61
"CC(C)(CN1CCC2(CC1)CS(=O)(=O)C2)Oc1ccc(F)c(C(F)(F)F)c1 [Compound 220, 7-(2-(4-Fluoro-3-(trifluoromethyl)phenoxy)-2-methylpropyl)-2-thia-7-azaspiro[3.5]nonane 2,2-dioxide]",11.9,,0.97
"O=S1(=O)CC2(CCN(CCOc3ccc([C@H]4CC[C@@H](C(F)(F)F)CC4)nc3)CC2)C1 [247B*, 7-(2-((6-((cis)-4-(trifluoromethyl)cyclohexyl)pyridin-3-yl)oxy)ethyl)-2-thia-7-azaspiro[3.5]nonane 2,2-dioxide]",8.97,,68.6
"O=S1(=O)CC2(CCN(CCOc3ccc(-c4ccc(C(F)(F)F)nc4)nc3)CC2)C1 [Compound 241, 7-[2-[[6-[6-(Trifluoromethyl)-3-pyridyl]-3-pyridyl]oxy]ethyl]-26-thia-7-azaspiro[3.5]nonane 2,2-dioxide]",69,,14.9
"CC(Cc1ccc(C(F)(F)F)cc1)CN1CCC2(C1)CS(=O)(=O)C2 (stereo not shown) [Compound 104, 6-(2-Methyl-3-(4-(trifluoromethyl)phenyl)propyl)-2-thia-6-azaspiro[3.4]octane 2,2-dioxide]",,1.7,0.48
"O=S1(=O)CC2(CCN(CCOc3ccnc([C@H]4CC[C@H](C(F)(F)F)CC4)c3)CC2)C1 [245B*, 7-(2-((2-((trans)-4-(trifluoromethyl)cyclohexyl)pyridin-4-yl)oxy)ethyl)-2-thia-7-azaspiro[3.5]nonane 2,2-dioxide]",19.7,,8.37
"C[C@@H](CN1CCC2(CC1)CS(=O)(=O)C2)Oc1ccc(C(F)(F)F)nc1 (single isomer, unassigned) [Example 207A*]",33.6,,31
"O=S1(=O)CC2(CCN(CCOc3cnc(C(F)(F)F)c(Cl)c3)CC2)C1 [Compound 242, 7-[2-[[5-Chloro-6-(trifluoromethyl)-3-pyridyl]oxy]ethyl]-26-thia-7-azaspiro[3.5]nonane 2,2-dioxide]",,16.3,4.51

# More lines, now with the values ahead:
Ki [1] [nM],EC50 (EpiSC-derived OPCs) [nM],EC50 [2] [nM],SMILES
6.54,0.55,0.4,"C[C@H](Cc1ccc(C2CCC2)cc1)CN1CCC2(C1)CS(=O)(=O)C2 (single isomer, unassigned) [109B*]"
89.6,26.9,30.1,"O=S1(=O)CC2(CCN(CC[C@H](F)c3ccc(C(F)(F)F)nc3)CC2)C1 (single isomer, unassigned) [237A*]"
,1.5,1.4,"C[C@H](Cc1ccc(C2(C)CC2)cc1)CN1CCC2(C1)CS(=O)(=O)C2 (single isomer, unassigned) [111B*]"
9.43,1.5,,"C[C@@H](Cc1ccc(C2CCC(F)(F)CC2)c(Cl)c1)CN1CCC2(C1)CS(=O)(=O)C2 (single isomer, unassigned) [117A*]"
13.9,,1.5,"CC(C)(CN1CCC2(CC1)CS(=O)(=O)C2)Oc1ccc(F)c(F)c1 [Example 156, 7-(2-(3,4-Difluorophenoxy)-2-methylpropyl)-2-thia-7-azaspiro[3.5]nonane 2,2-dioxide]"
10.7,,23.5,"O=S1(=O)CC2(CCN(CCOc3cnc(C4CCCCC4)c(C(F)(F)F)c3)CC2)C1 [Compound 244, 7-(2-((6-Cyclohexyl-5-(trifluoromethyl)pyridin-3-yl)oxy)ethyl)-2-thia-7-azaspiro[3.5]nonane 2,2-dioxide]"
250,,49,"C[C@H](Cc1ccc(C(F)(F)F)nc1)CN1CC2(CCS(=O)(=O)CC2)C1 (single isomer, unassigned) [234A*]"
,18,0.41,"O=S1(=O)CC2(CCN(CCCc3ccc(C(F)(F)F)cc3)C2)C1 [Compound 113, 6-(3-(4-(Trifluoromethyl)phenyl)propyl)-2-thia-6-azaspiro[3.4]octane-2,2-dioxide]"
16,,10.5,"O=S1(=O)CC2(CCN(CCOc3ccnc([C@H]4CC[C@@H](C(F)(F)F)CC4)c3)CC2)C1 [245A*, 7-(2-((2-((cis)-4-(Trifluoromethyl)cyclohexyl)pyridin-4-yl)oxy)ethyl)-2-thia-7-azaspiro[3.5]nonane 2,2-dioxide]"
,0.72,0.62,"CC(C)(Cc1ccc(C(F)(F)F)cc1)CN1CCC2(C1)CS(=O)(=O)C2 [Example 125, 6-(2,2-Dimethyl-3-(4-(trifluoromethyl)phenyl)propyl)-2-thia-6-azaspiro[3.4]octane-2,2-dioxide]"
,6.1,7.1,"C[C@@H](Cc1ccc(C2(C)CC2)cc1)CN1CCC2(C1)CS(=O)(=O)C2 (single isomer, unassigned) [111C*]"
